# Source: patent US12194007B2, “Pharmaceutical composition for preventing or treating cancer, comprising gossypol, phenformin, and anticancer agent” (National Cancer Center, priority 2018, dated 2025)
# Like-named read-outs stand apart in the source and are kept apart here.
# Key:
# [1] = tested on: A549 cell line or H522 cell line; assay: SRB cell proliferation assay, non-small cell lung cancer cell lines; type: cell-based; settings: for effect of inhibiting cell proliferation in the triple drug treatment group: cisplatin 20 μM or 5-FU 5 μM mixed with gossypol 5 μM and phenformin 100 μM (Tables 11-12, FIGS. 4B, 4C); for synergistic effect of anticancer action when mixed with gossypol and phenformin: lung cancer (NSCLC), cisplatin 20 μM or 5-FU 5 μM + gossypol 5 μM + phenformin 100 μM; for synergistic effect of anticancer action when mixed with gossypol and phenformin / degree of cell proliferation with respect to the untreated control: irinotecan 1 μM; for degree of cell proliferation with respect to the untreated control: gossypol 5 μM, phenformin 100 μM, single, double or triple (Table 10, FIG. 4A)
# [2] = tested on: UACC62 cell line or an A375 cell line; assay: SRB cell proliferation assay, melanoma cell lines; type: cell-based; settings: for effect of inhibiting cell proliferation in the triple drug treatment group: cisplatin or oxaliplatin 10 μM mixed with gossypol 5 μM and phenformin 100 μM (Tables 5-6, FIGS. 2B, 2C); for degree of cell proliferation with respect to the untreated control: gossypol 5 μM, phenformin 100 μM, single, double or triple (Table 4, FIG. 2A)
# [3] = tested on: SK-OV-3 or OVCAR3 cell line; assay: SRB cell proliferation assay, ovarian cancer cell lines; type: cell-based; settings: for synergistic effect of anticancer action when mixed with gossypol and phenformin: ovarian cancer, paclitaxel 50 nM or irinotecan 0.5 μM + gossypol 5 μM + phenformin 100 μM; for synergistic effect of anticancer action when mixed with gossypol and phenformin / degree of cell proliferation with respect to the untreated control: cisplatin 1 nM; for effect of inhibiting cell proliferation in the triple drug treatment group: paclitaxel 50 nM or irinotecan 0.5 μM mixed with gossypol 5 μM and phenformin 100 μM (Tables 17-18, FIGS. 6B, 6C); for degree of cell proliferation with respect to the untreated control: gossypol 5 μM, phenformin 100 μM, single or double (Table 16, FIG. 6A)
# [4] = tested on: ACHN cell line or CAKI-1 cell line; assay: SRB cell proliferation assay, kidney cancer cell lines; type: cell-based; settings: for degree of cell proliferation with respect to the untreated control: gossypol 2.5 μM, phenformin 100 μM, sorafenib 10 μM, single, double or triple (Table 1, FIG. 1A)
# Procedure: Specifically, while culturing the ACHN cell line or CAKI-1 cell line, which is a kidney cancer cell line, each cell was inoculated into a 96-well plate at a density of 5,000 to 20,000 cells/well depending on the amplification phase of the culture time. After inoculation, the anticancer agent mixtures of the following [Table 1] to [Table 3] were added to each well and cultured in a CO2 incubator for 24 hours. The anticancer agent mixture was prepared so that the final concentration of each anticancer agent can be appropriately added by mixing each at a stock concentration and then adding 100 μl each. After treatment with the anticancer agent, cells were further cultured for 48 hours, and then 10% (w/v) trichloroacetic acid (TCA) was added to each well and incubated at 4° C. for 60 minutes to fix the cells. The supernatant liquid other than the fixed cells was removed, the plate was washed 5 times with tap water, and then dried in air. After drying, 100 μl of 0.4% (w/v) sulforhodamine B buffer solution containing 1% acetic acid was added to each well, and left at room temperature for 5 minutes to stain the cells. After staining the cells, the cells were washed 5 times with 1% acetic acid to remove unstained dye and then dried in air. The colored dye was immobilized with 10 mM trizma base, and then absorbance was measured at 515 nm using a plate reader. As an untreated control, the degree of cell proliferation of a cell line cultured without treatment with an anticancer agent was measured, and the degree of cell proliferation of each experimental group with respect to the untreated control was calculated as a relative ratio and expressed as a percentage (%).
# SNU449 or Huh7 cell line = assay: SRB cell proliferation assay, liver cancer cell lines; type: cell-based; settings: for degree of cell proliferation with respect to the untreated control: gossypol 5 μM, phenformin 100 μM, cisplatin 1 μM, single or double (Table 22, FIG. 8A); for synergistic effect of anticancer action when mixed with gossypol and phenformin: liver cancer, cisplatin 1 μM or sorafenib 5 μM + gossypol 5 μM + phenformin 100 μM
# [5] = tested on: BT549 cell line or MB231 cell line; assay: SRB cell proliferation assay, breast cancer cell lines; type: cell-based; settings: for degree of cell proliferation with respect to the untreated control: gossypol 5 μM, phenformin 100 μM, third agent per Table 13 paclitaxel 50 nM, single, double or triple (FIG. 5A); for synergistic effect of anticancer action when mixed with gossypol and phenformin: breast cancer, named agent + gossypol 5 μM + phenformin 100 μM (Tables 13-15)
# [6] = tested on: SNU638 cells xenograft tumor; assay: Gastric cancer mouse model, tumor growth; type: in vivo, Balb/c-nu mice; settings: gossypol 80 mg/kg, phenformin 100 mg/kg, irinotecan 30 mg/kg, single, double or triple; vs solvent control (Table 27, FIGS. 12A, 12B)
# Procedure: First, in order to make a lung cancer mouse model, 6 to 8 week old Balb/c-nu mice (Central Lab. Animal, Highland Heights, KY, USA) were prepared. In addition, 7.5×10^6 A549 cell line was cultured, and was injected subcutaneously to the prepared mice with a 1 ml syringe. Mice were reared for 1 week and divided into 4 groups of 8 mice each, and these were used as a control group or an experimental group as defined in [Table 24] and [Table 25]. The solvent or drug was orally administered to the mice of the solvent control group, the double drug treatment group, and the triple drug treatment group once a day, 6 days per week, and while administering intravenously irinotecan to the mice of the single treatment group with irinotecan once a day, 1 day per week, the mice were reared in the same environment for a total of 49 days. While breeding, the average was obtained by checking the weight and size of the tumor of the mouse group every 7 days. After injection of lung cancer cells, the initial tumor size was specified using a calliper. The tumor volume was calculated according to the following [Equation 1].
# Specifically, the mouse model with the gastric cancer was prepared by the same method as the method of preparing the lung cancer mouse model in [Example 9], except that the mouse model with the gastric cancer was prepared by xenografting SNU638 cells (1.5×10^7). Then, the prepared mouse model with the gastric cancer was used as a control group or an experimental group as defined in the following [Table 27].
# [7] = tested on: HT29 cell line or Colo205 cell line; assay: SRB cell proliferation assay, colorectal cancer cell lines; type: cell-based; settings: for degree of cell proliferation with respect to the untreated control: gossypol 2.5 μM, phenformin 50 μM, irinotecan 1 μM, single, double or triple (Table 7, FIG. 3A); for effect of inhibiting cell proliferation in the triple drug treatment group: cisplatin or capecitabine 10 μM mixed with gossypol 2.5 μM and phenformin 75 μM (Tables 8-9, FIGS. 3B, 3C); for synergistic effect of anticancer action when mixed with gossypol and phenformin: colon cancer, irinotecan 1 μM (phenformin 50 μM) or cisplatin/capecitabine 10 μM (phenformin 75 μM) + gossypol 2.5 μM
# [8] = tested on: PC3 cell line or DU145 cell line; assay: SRB cell proliferation assay, prostate cancer cell lines; type: cell-based; settings: for effect of inhibiting cell proliferation in the triple drug treatment group: docetaxel 50 nM or irinotecan 0.5 μM mixed with gossypol 5 μM and phenformin 100 μM (Tables 20-21, FIGS. 7B, 7C)
# [9] = tested on: A549 cell line xenograft tumor; assay: Lung cancer mouse model, tumor growth; type: in vivo, Balb/c-nu mice
# Procedure: First, in order to make a lung cancer mouse model, 6 to 8 week old Balb/c-nu mice (Central Lab. Animal, Highland Heights, KY, USA) were prepared. In addition, 7.5×10^6 A549 cell line was cultured, and was injected subcutaneously to the prepared mice with a 1 ml syringe. Mice were reared for 1 week and divided into 4 groups of 8 mice each, and these were used as a control group or an experimental group as defined in [Table 24] and [Table 25]. […] While breeding, the average was obtained by checking the weight and size of the tumor of the mouse group every 7 days. After injection of lung cancer cells, the initial tumor size was specified using a calliper. The tumor volume was calculated according to the following [Equation 1].
structure (smiles),measurement,setting,value
"O=c1[nH]cc(F)c(=O)[nH]1 [5-FU, 5-fluorouracil]",effect of inhibiting cell proliferation in the triple drug treatment group,[1],level similar to that of the double drug treatment group
same,synergistic effect of anticancer action when mixed with gossypol and phenformin,[1],not exhibited
O=C1[O][Pt]2([NH][C@@H]3CCCC[C@H]3[NH]2)[O]C1=O [oxaliplatin],effect of inhibiting cell proliferation in the triple drug treatment group,[2],level similar to that of the double drug treatment group
CC(=O)O[C@H]1C(=O)[C@@]2(C)[C@H]([C@H](OC(=O)c3ccccc3)[C@]3(O)C[C@H](OC(=O)[C@H](O)[C@@H](NC(=O)c4ccccc4)c4ccccc4)C(C)=C1C3(C)C)[C@]1(OC(C)=O)CO[C@@H]1C[C@@H]2O [paclitaxel],synergistic effect of anticancer action when mixed with gossypol and phenformin,[3],not exhibited
same,effect of inhibiting cell proliferation in the triple drug treatment group,[3],level similar to that of the double drug treatment group
Cc1cc2c(C(C)C)c(O)c(O)c(C=O)c2c(O)c1-c1c(C)cc2c(C(C)C)c(O)c(O)c(C=O)c2c1O [gossypol],degree of cell proliferation with respect to the untreated control,[4],proliferation of cancer cells could be inhibited
same,degree of cell proliferation with respect to the untreated control,SNU449 or Huh7 cell line,proliferation of cancer cells could be inhibited at a significant level
same,degree of cell proliferation with respect to the untreated control,[5],proliferation of cancer cells could be inhibited at a significant level
same,degree of cell proliferation with respect to the untreated control,[1],proliferation of cancer cells could be inhibited at a significant level
same,degree of cell proliferation with respect to the untreated control,[3],proliferation of cancer cells could be inhibited at a significant level
same,level of tumor growth,[6],a level similar to levels of tumor growth
same,degree of cell proliferation with respect to the untreated control,[2]; vemurafenib 0.5 μM,proliferation of cancer cells could be inhibited at a significant level
same,degree of cell proliferation with respect to the untreated control,[7],proliferation of cancer cells could be inhibited at a significant level
same,degree of cell proliferation with respect to the untreated control,[8],proliferation of cancer cells could be inhibited at a significant level
CCCCCOC(=O)Nc1nc(=O)n([C@@H]2O[C@H](C)[C@@H](O)[C@H]2O)cc1F [capecitabine],effect of inhibiting cell proliferation in the triple drug treatment group,[7],level similar to that of the double drug treatment group
same,synergistic effect of anticancer action when mixed with gossypol and phenformin,[7],not exhibited
NC(N)=N/C(N)=N/CCc1ccccc1 [phenformin],degree of cell proliferation with respect to the untreated control,[4],proliferation of cancer cells could be inhibited
same,degree of cell proliferation with respect to the untreated control,SNU449 or Huh7 cell line,proliferation of cancer cells could be inhibited at a significant level
same,degree of cell proliferation with respect to the untreated control,[5],proliferation of cancer cells could be inhibited at a significant level
same,degree of cell proliferation with respect to the untreated control,[1],proliferation of cancer cells could be inhibited at a significant level
same,degree of cell proliferation with respect to the untreated control,[3],proliferation of cancer cells could be inhibited at a significant level
same,level of tumor growth,[6],a level similar to levels of tumor growth
same,degree of cell proliferation with respect to the untreated control,[2]; vemurafenib 0.5 μM,proliferation of cancer cells could be inhibited at a significant level
same,degree of cell proliferation with respect to the untreated control,[7],proliferation of cancer cells could be inhibited at a significant level
same,degree of cell proliferation with respect to the untreated control,"[8]; gossypol 5 μM, phenformin 100 μM, doxorubicin 1 nM, single, double or triple (Table 19, FIG. 7A)",proliferation of cancer cells could be inhibited at a significant level
Nc1ccn([C@@H]2O[C@H](CO)[C@@H](O)C2(F)F)c(=O)n1 [gemcitabine],anticancer synergistic effect of the triple drug administration,[9]; gemcitabine 40 mg/kg with gossypol 80 mg/kg and phenformin 100 mg/kg (FIG. 10),not observed
same,tumor growth (change in tumor size),"[9]; gemcitabine experiment: gossypol 80 mg/kg, phenformin 100 mg/kg, gemcitabine 40 mg/kg, single or double (Table 25, FIG. 10)",tumor growth at a level similar to that of the solvent administration group
CCc1c2c(nc3ccc(OC(=O)N4CCC(N5CCCCC5)CC4)cc13)-c1cc3c(c(=O)n1C2)COC(=O)[C@]3(O)CC [irinotecan],synergistic effect of anticancer action when mixed with gossypol and phenformin,[5],can exhibit a synergistic effect
same,degree of cell proliferation with respect to the untreated control,[5],proliferation of cancer cells could be inhibited at a significant level
same,degree of cell proliferation with respect to the untreated control,[1],proliferation of cancer cells could be inhibited at a significant level
same,synergistic effect of anticancer action when mixed with gossypol and phenformin,[1],can exhibit a synergistic effect
same,synergistic effect of anticancer action when mixed with gossypol and phenformin,[3],not exhibited
same,effect of inhibiting cell proliferation in the triple drug treatment group,[3],level similar to that of the double drug treatment group
same,level of tumor growth,[6],significantly decreased the level of tumor growth
same,synergistic effect of anticancer action when mixed with gossypol and phenformin,[7],can exhibit a synergistic effect
same,degree of cell proliferation with respect to the untreated control,[7],proliferation of cancer cells could be inhibited at a significant level
same,effect of inhibiting cell proliferation in the triple drug treatment group,[8],level similar to that of the double drug treatment group
CNC(=O)c1cc(Oc2ccc(NC(=O)Nc3ccc(Cl)c(C(F)(F)F)c3)cc2)ccn1 [sorafenib],degree of cell proliferation with respect to the untreated control,[4],proliferation of cancer cells could be inhibited
same,synergistic effect of anticancer action when mixed with gossypol and phenformin,"[4]; renal cell carcinoma, named agent 10 μM + gossypol 2.5 μM + phenformin 100 μM",can exhibit a synergistic effect
same,synergistic effect of anticancer action when mixed with gossypol and phenformin,SNU449 or Huh7 cell line,not exhibited
same,effect of inhibiting cell proliferation in the triple drug treatment group,"SNU449 or Huh7 cell line; sorafenib 5 μM mixed with gossypol 5 μM and phenformin 100 μM (Table 23, FIG. 8B)",level similar to that of the double drug treatment group
N.N.[Cl][Pt][Cl] [cisplatin],degree of cell proliferation with respect to the untreated control,SNU449 or Huh7 cell line,proliferation of cancer cells could be inhibited at a significant level
same,synergistic effect of anticancer action when mixed with gossypol and phenformin,SNU449 or Huh7 cell line,can exhibit a synergistic effect
same,synergistic effect of anticancer action when mixed with gossypol and phenformin,[5],not exhibited
same,effect of inhibiting cell proliferation in the triple drug treatment group,"[5]; cisplatin 1 μM or doxorubicin 1 μM mixed with gossypol 5 μM and phenformin 100 μM (Tables 14-15, FIGS. 5B, 5C)",level similar to that of the double drug treatment group
same,effect of inhibiting cell proliferation in the triple drug treatment group,[1],level similar to that of the double drug treatment group
same,synergistic effect of anticancer action when mixed with gossypol and phenformin,[1],not exhibited
same,degree of cell proliferation with respect to the untreated control,[3],proliferation of cancer cells could be inhibited at a significant level
same,synergistic effect of anticancer action when mixed with gossypol and phenformin,[3],can exhibit a synergistic effect
same,effect of inhibiting cell proliferation in the triple drug treatment group,[2],level similar to that of the double drug treatment group
same,synergistic effect of anticancer action when mixed with gossypol and phenformin,"[2]; melanoma, vemurafenib 0.5 μM, cisplatin 10 μM or oxaliplatin 10 μM + gossypol 5 μM + phenformin 100 μM",not exhibited
same,effect of inhibiting cell proliferation in the triple drug treatment group,[7],level similar to that of the double drug treatment group
same,synergistic effect of anticancer action when mixed with gossypol and phenformin,[7],not exhibited
CC(=O)O[C@@]12CO[C@@H]1C[C@H](O)[C@@]1(C)C(=O)[C@H](O)C3=C(C)[C@@H](OC(=O)[C@H](O)[C@@H](NC(=O)OC(C)(C)C)c4ccccc4)C[C@@](O)([C@@H](OC(=O)c4ccccc4)[C@H]21)C3(C)C [docetaxel],effect of inhibiting cell proliferation in the triple drug treatment group,[8],level similar to that of the double drug treatment group
